Among the data in article PMC7352507, “The Genome Analysis of Methylobacterium populi YC-XJ1 with Diverse Xenobiotics Biodegrading Capacity and Degradation Characteristics of Related Hydrolase” (International Journal of Molecular Sciences, 2020) are Km values, retold here.

The test system of one assay is T1, DEPH1.
T1 construct: full length, 280 aa, 29,714 Da, no signal peptide; pET-32a(+) BamHI/HindIII, Trx/His/S tags kept (about 48 kDa on SDS-PAGE); E. coli
The experiment in a line: residual substrate (HPLC or GC), Lineweaver-Burk. The format is biochemical, Methylorubrum populi. The note with it: 10 mM PBS pH 7.0, 25 °C; 500 µg enzyme; DEP 0.2-2.4 mM.

For another assay, the system named is T2, QPEH2.
T2 construct: full length, 367 aa, 39,840 Da, no signal peptide; pET-32a(+) BamHI/HindIII, fused tags (His/S stated; about 45 kDa on SDS-PAGE) kept; E. coli
The experiment in a line: HPLC of residual substrate, Lineweaver-Burk. The format is biochemical, Methylorubrum populi. Particulars: 10 mM PBS pH 7.0, 25 °C; 120 µg enzyme; QPE 0.2-2.4 mM.

Broadly, the Km is the substrate concentration at which the rate is half of its maximum. As for `CCOC(=O)c1ccccc1C(=O)OCC` [diethyl phthalate], the Km with DEPH1 was found to be 1.04 ± 0.27 mM.

Turning to `CCOC(=O)[C@@H](C)Oc1ccc(Oc2cnc3cc(Cl)ccc3n2)cc1` [quizalofop-p-ethyl], the Michaelis-Menten constant (Km) in the assay on QPEH2 was determined as 83.9 ± 30.3 µM.
